From patent publication US10087219B2, “Human alpha-defensin 5 variant and uses thereof” (priority 2016, dated 2018)
Positions of bridges follow the written chain, without caps; N, C: chain ends. Residues, ends and D or L forms follow the SMILES beside them. No end group written: not given here. *: point of attachment. Myristoyl = CCCCCCCCCCCCCC(=O)*; Lauroyl = CCCCCCCCCCCC(=O)*

How the values were obtained:
THP-1 cells = assay: Release of IL-1β mature body from LPS-stimulated THP-1 macrophages (immunoblotting); assay type: cell-based; conditions: LPS 100 ng/ml 3 h, FIG. 4
Procedure: THP-1 cells were cultured with RPMI-1640 culture media added with 10% fetal calf serum, and then inoculated on 24-well plate during logarithmic phase, 10^6 cells per well, added with PMA with final concentration of 100 nM for stimulating for 12 h so that cell adhered wall.
Media was exchanged with […] added with 10% fetal calf serum, and stood for 24 hours.
The following groups were set: blank group, LPS stimulation group, LPS+5 mM ATP group (positive control group), LPS+HD-5 group, LPS+HD-5Myr group, LPS+HD-5Lau group. 100 ng/ml lipopolysaccharide (LPS) was used or not to perform stimulation for 3 h, then gently washed twice with 1640 culture media, and then added or not with HD-5Myr or HD-5Lau with final concentration of 10 μg/ml and 20 μg/ml, or ATP with final concentration of 5 mM, or HD-5 with final concentration of 100 μg/ml and 200 μg/ml; and supernatant of each group was collected.
The proteins in supernatant in same volume were concentrated, lysed with protein lysis solution, and then release conditions of IL-1β mature body for different groups were compared by immunoblotting method.

human red cells = assay: Hemolysis of human red cells; assay type: cell-based; conditions: 25 μg/ml; 4% human red cells, 37° C., 1 h; 10% Triton X-100 = 100% hemolysis; FIG. 3
Procedure: The hemolysis effects of antibacterial peptide HD-5 as well as its variants HD-5Myr and HD-5Lau on human red cell were measured.
Fresh human blood sample was collected, heparinized then centrifuged to take red cell layer;
washed with PBS for 3 times;
to EP tube, HD-5 and its variants with final concentrations of 50 μg/ml and 25 μg/ml were added separately; the positive control was added with 10% Triton X-100 in same volume, while the negative control was added with PBS in same volume.
4% human red cells were added separately, incubated at 37° C. for 1 h;
centrifuged, supernatant in same volume was taken and placed in 96-well plate, OD value at 540 nm was measured; by using the positive control as 100% hemolysis, and using the negative control as 0% hemolysis, the hemolysis rate for each well was calculated: Red cell hemolysis rate %=Test well OD value−negative control well OD valuePositive control well OD value−negative control OD×100%

MRSA-1 = assay: Antibacterial activity (LD90, optical density growth kinetics) against MRSA-1; assay type: cell-based, methicillin-resistant Staphylococcus aureus; conditions: for LD90: MRSA-1 isolated in clinic, concentration required for killing 90% bacteria, 2 h incubation at 37° C.
Procedure: (§1) According to measurement of antibacterial activity of antibacterial peptides, the antibacterial potencies of the variants HD-5Myr, HD-Lau and MyrHD-5 of HD-5 as synthesized in Example 2 as well as natural HD-5 were compared.
(§2) The experiments were carried out according to the method for detecting antibacterial activity of antibacterial peptide as reported by Ericksen et al in 2005 (Ericksen B, et al., Antibacterial activity and specificity of the six human {alpha}-defensins. Antimicrob Agents Chemother, 2005).
Bacteria were inoculated on LB agar plate, and placed in 37° C. constant temperature incubator until bacterial colonies grew. Single colony was picked out, inoculated in 5 ml of LB culture media, and shake cultured at constant temperature of 37° C. for 4-6 h. It was then washed with sterile water twice. Optical density at 600 nm was measured with ELIASA, 1 OD600=4×10^8 CFU/ml, and the bacteria to be tested were diluted with sterile water to 2×10^6 CFU/ml.
To a sterile 96-plate, 50 μl of sterile water was added to each well, and then A1 well was added with an antibacterial peptide HD-5 sample diluted to a certain concentration. After being mixed evenly, 50 μl was taken therefrom and added to A2 well, thereby being diluted in multiple proportion manner in order, and 50 μl was sucked out from A6 well and discarded. By using the same method, MyrHD-5, HD-5Myr and HD-5Lau samples were diluted. The control well was 50 μl sterile water. Then, to each well, 50 μl of 2×10^6 CFU/ml bacteria was added, and shake cultured at constant temperature of 37° C. for 2 h. Then, 100 μl of LB culture media with double concentration was added separately. Optical density values at 600 nm were measured every 5 minutes in ELIASA at constant temperature of 37° C.
(§3) The measured optical density value minus the optical density value at time 0, and logarithm thereof was taken. […] According to this linear rule, bactericidal rates for different groups were calculated. […]

S. aureus ATCC 25923 = assay: Antibacterial activity (LD90, optical density growth kinetics) against S. aureus ATCC 25923; assay type: cell-based, Staphylococcus aureus; conditions: concentration required for killing 90% bacteria, 2 h incubation at 37° C.
Procedure: as §1, §2
(§4) Bacteria were inoculated on LB agar plate, and placed in 37° C. constant temperature incubator until bacterial colonies grew. […] Optical density at 600 nm was measured with ELIASA, 1 OD600=4×10^8 CFU/ml, and the bacteria to be tested were diluted with sterile water to 2×10^6 CFU/ml.
(§5) To a sterile 96-plate, 50 μl of sterile water was added to each well, and then A1 well was added with an antibacterial peptide HD-5 sample diluted to a certain concentration. […] Optical density values at 600 nm were measured every 5 minutes in ELIASA at constant temperature of 37° C.
as §3

[1] = Micellar structure formation by transmission electron microscopy; assay type: physicochemical; conditions: uranyl acetate staining, FIG. 1
Text: Small amounts of HD-5, HD-5Myr and HD-5Lau samples were taken and dropped on copper grid used for electron microscope, excessive samples were sucked out with filter paper, after being dried at room temperature, uranyl acetate was used for staining.

E. coli ATCC 25922 = assay: Antibacterial activity (LD90, optical density growth kinetics) against E. coli ATCC 25922; assay type: cell-based, Escherichia coli; conditions: concentration required for killing 90% bacteria, 2 h incubation at 37° C.
Procedure: as §1, §2, §4, §5, §3

With Nc1ncnc2c1ncn2[C@@H]1O[C@H](COP(=O)(O)OP(=O)(O)OP(=O)(O)O)[C@@H](O)[C@H]1O [ATP] the “Release of IL-1β mature body” value (THP-1 cells; then 5 mM ATP (positive control)) was “exhibited release of IL-1β mature body”.
Work on CCCCCCCCCCCC(=O)NCCCC[C@H](NC(=O)CNC(=O)[C@H](CCCNC(=N)N)NC(=O)[C@@H]1CSSC[C@H](NC(=O)[C@@H](NC(=O)[C@H](C)N)[C@@H](C)O)C(=O)N[C@@H](Cc2ccc(O)cc2)C(=O)N[C@H]2CSSC[C@@H]3NC(=O)[C@H](C(C)C)NC(=O)CNC(=O)[C@H](CO)NC(=O)[C@H](CC(C)C)NC(=O)[C@H](CO)NC(=O)[C@H](CCC(=O)O)NC(=O)[C@H](CCCNC(=N)N)NC(=O)[C@H]([C@@H](C)O)NC(=O)[C@H](C)NC(=O)[C@H](CSSC[C@H](NC(=O)[C@H](CC(C)C)NC(=O)[C@H](CCCNC(=N)N)NC(=O)[C@H](Cc4ccc(O)cc4)NC(=O)[C@H](CC(C)C)NC(=O)[C@H](CCCNC(=N)N)NC(=O)CNC(=O)[C@H](CO)NC(=O)[C@H]([C@@H](C)CC)NC(=O)[C@H](CCC(=O)O)NC3=O)C(=O)N1)NC(=O)[C@H](CCCNC(=N)N)NC(=O)CNC(=O)[C@H]([C@@H](C)O)NC(=O)[C@H](CCCNC(=N)N)NC2=O)C(N)=O [HD-5Lau] (H-ATCYCRTGRCATRESLSGVCEISGRLYRLCCRGK(Lauroyl)-NH2; disulfide 3-31, 5-20, 10-30) yielded a hemolysis rate (human red cells) of 2.24%.
CCCCCCCCCCCCCC(=O)NCCCC[C@H](NC(=O)CNC(=O)[C@H](CCCNC(=N)N)NC(=O)[C@@H]1CSSC[C@H](NC(=O)[C@@H](NC(=O)[C@H](C)N)[C@@H](C)O)C(=O)N[C@@H](Cc2ccc(O)cc2)C(=O)N[C@H]2CSSC[C@@H]3NC(=O)[C@H](C(C)C)NC(=O)CNC(=O)[C@H](CO)NC(=O)[C@H](CC(C)C)NC(=O)[C@H](CO)NC(=O)[C@H](CCC(=O)O)NC(=O)[C@H](CCCNC(=N)N)NC(=O)[C@H]([C@@H](C)O)NC(=O)[C@H](C)NC(=O)[C@H](CSSC[C@H](NC(=O)[C@H](CC(C)C)NC(=O)[C@H](CCCNC(=N)N)NC(=O)[C@H](Cc4ccc(O)cc4)NC(=O)[C@H](CC(C)C)NC(=O)[C@H](CCCNC(=N)N)NC(=O)CNC(=O)[C@H](CO)NC(=O)[C@H]([C@@H](C)CC)NC(=O)[C@H](CCC(=O)O)NC3=O)C(=O)N1)NC(=O)[C@H](CCCNC(=N)N)NC(=O)CNC(=O)[C@H]([C@@H](C)O)NC(=O)[C@H](CCCNC(=N)N)NC2=O)C(N)=O [HD-5Myr] (H-ATCYCRTGRCATRESLSGVCEISGRLYRLCCRGK(Myristoyl)-NH2; disulfide 3-31, 5-20, 10-30) showed a hemolysis rate (human red cells) of 6.83%.
In the case of “Human defensin-5 (ATCYCRTGRCATRESLSGVCEISGRLYRLCCR; disulfide 10-30, 5-20, 3-31; listed as Homo sapiens) [HD-5, the modification template]”, the “LD90 against methicillin-resistant Staphylococcus aureus compared with LD90 against Staphylococcus aureus ATCC 25923” value (MRSA-1; MRSA versus S. aureus ATCC 25923) is reported as “far lower”, the LD90 (MRSA-1) is reported as 5.850 µg/mL and the “Release of IL-1β mature body” value (THP-1 cells; then peptide at 100 μg/ml and 200 μg/ml) is reported as “could promote the release of IL-1β mature body”. The LD90 (S. aureus ATCC 25923) was >12.5 µg/mL, the “Formation of micellar structure” value [1] was “micellar structure was not observed” and the LD90 (E. coli ATCC 25922) was 6.691 µg/mL.
For “MyrHD-5: 33-residue N-terminally modified HD-5 variant (SEQ ID NO: 3), Gly1 amino group linked to a myristoyl (Myristoyl-GATCYCRTGRCATRESLSGVCEISGRLYRLCCR; disulfide 11-31, 6-21, 4-32)”, the LD90 (MRSA-1) was 1.400 µg/mL, the LD90 (S. aureus ATCC 25923) was 6.280 µg/mL and the LD90 (E. coli ATCC 25922) was >12.5 µg/mL.
